Source: patent publication EP3925626A1, “LIPOPEPTIDE CONJUGATES AND THEIR SALTS, METHOD OF MANUFACTURE OF LIPOPEPTIDE CONJUGATES AND THEIR SALTS, PHARMACEUTICAL COMPOSITION COMPRISING A LIPOPEPTIDE CONJUGATE AND ITS SALTS FOR THE TREATMENT OF CHRONIC WOUNDS” (priority 2020, dated 2021)
Read-outs that look alike come from different tables or passages of the source. Where a SMILES comes first, the peptide text is derived from it. [ ]: non-standard residue; d: D form. The star is where a group is joined. Hyp = O=C(O)[C@@H]1C[C@@H](O)CN1; Lauroyl = CCCCCCCCCCCC(=O)*

Assays:
primary fibroblast cells = assay: In vitro wound healing (closure) assay with IBIDI culture inserts, fibroblast migration; format: cell-based, human
Procedure: In vitro wound healing (closure) assay using IBIDI culture inserts were performed according to literature. Briefly, cell suspension (1,5×10^4) was seeded in Culture-insert 2 well in 70µl of growth medium (DMEM) and cultured for 24 h (37°C, 5%CO2) to form a monolayer. After removal of the Culture-insert, the newly created cell-free gap (wound) was wahed with DMEM followed by PBS. Cell monolayer was also preincubated for 30 min in the presence of mitomycin C (8µg/mL), as a DNA replication and cell proliferation inhibitor. A fresh DMEM and the cells were treated with a pharmaceutical composition containing a lipopeptide conjugate or pharmaceutically acceptable salt and incubated for 24h (37°C, 5%CO2). The cultures in DMEM (K+) was incubated under the same conditions as described above. After overnight incubation, the media was removed, cells were rinsed with sterile PBS and then 1% paraformaldehyde (PFA) was added. After 20 minutes, the cells were washed with PBS and stained with 0.05% crystal violet solution. The stained cells were washed with PBS and then distilled water was added to each well. The wounded areas were visualized microscopically and photographed by microscope (Zeiss). Photographs from the process of human fibroblasts migration after treatment with a pharmaceutical composition containing a lipopeptide conjugate or a pharmaceutically acceptable salt thereof at a given concentration are shown in Figure 7. Cell migration was analyzed using Imaging Software NIS-Elements Basic Research. Alternatively, the migration rate was expressed as the percentage of area reduction (wound closure) compared to the control K. Data of at least independent experiments (n=3) were shown in Figure 4. […] However, lipopeptide conjugates at a concentration of 0.01µg/mL regulated independently both processes, including fibroblast proliferation and migration.
The wound area reduced by 10.3-20.7% as cell migration progresses in comparison to control. This effect was statistically significant. The migration of primary fibroblast cells was enhanced after 24 hours of lipopeptide conjugates treatment. […]

[1] = test system: human keratinocyte primary culture; assay: Keratinocyte proliferation in the wound closure setting; format: cell-based; conditions: relative to non-stimulated DMEM (K), mean±SD
HaCaT [2] = assay: Cytotoxicity, LDH release assay; format: cell-based, human; conditions: 10% decrease in viability, tested 1÷1000 µg/mL
Procedure: (§1) The cytotoxicity of lipopeptide conjugates or their pharmaceutically acceptable salts was assessed in immortalized human cell lines, human primary fibroblast cells independently, separately using two assays, XTT and LDH. Approximately, 5×10^3 fibroblast human cell line BR1N, human primary fibroblast cells or HaCaT cells in 200 µl DMEM supplemented with 10% FCS per well were seeded in 96-well plate and incubated for 24 h (37°C, 5%CO2). Culture medium was replaced with fresh DMEM, and then the cells were exposed to lipopeptide conjugate or its pharmaceutically acceptable salt solutions administered in DMEM at the final concentration in the range from 1 µg mL^-1 to 1000 µg mL^-1. In the experiments, cells in DMEM medium treated with 0.9% solution of Triton X-100 were used as positive control (K+, 100% mortality), untreated cells in DMEM medium were assayed as a negative control (K-). After incubation, cytotoxicity was assessed by measuring the activity of the intracellular cytoplasmic enzyme - lactate dehydrogenase (LDH) and decrease in cell viability measured by a decrease in mitochondria metabolism activity to XTT reduction. The rapidly release of LDH enzyme into the cell culture supernatant is correlated with the plasma membrane damage and cell death. The LDH enzyme release was measured after removal of the supernatant, colorimetrically by incubation with reagent containing 2[4-iodophenyl]-3-[4-nitrophenyl]-5-phenyltetrazolium chloride. The absorbance measured at a wavelenght of 490nm using microplate reader Perkin Elmer spectrophotometer was proportional do LDH activity and the number of damaged cells. The XTT test was performed by adding the XTT solution to each test well. After incubation time at 37°C, the absorbance was measured at a wavelenght of 490nm. Average of absorbance measurements from 3 independent experiments was used to estimate the cell death. The mean absorbance from control wells was considered as 0% (negative control) and 100% (positive control) of cell mortality.

primary fibroblast [3] = format: cell-based
Procedure: as §1

BR1N [4] = assay: Cytotoxicity, XTT viability assay (MTT in Table 5); format: cell-based, human; conditions: MTT (so in the source), 10% decrease in viability, tested 1÷1000 µg/mL
Procedure: as §1

HaCaT [5] = assay: Cytotoxicity, XTT viability assay (MTT in Table 5); format: cell-based, human; conditions: MTT (so in the source), 10% decrease in viability, tested 1÷1000 µg/mL
Procedure: as §1

primary fibroblast [6] = assay: Cytotoxicity, XTT viability assay (MTT in Table 5); format: cell-based, human; conditions: MTT (so in the source), tested 1÷1000 µg/mL; for EC10: 10% decrease in viability
Procedure: as §1

human erythrocytes = format: cell-based
Procedure: Hemolytic activity was determined by incubating 2% suspension of erythrocytes from healthy human blood (n=3)) with serial dilutions of each selected lipopeptide conjugates (at concentration range from 1000µg/mL to 10µg/mL). Fresh erythrocytes were collected by centrifugation for 10 min at 500xg, washed three times with PBS and diluted to a concentration of 2% in PBS. Erythrocytes were incubated with lipopeptide conjugate, but also with 1% Triton X-100 (positive control), in PBS (blank) at 37°C for 1 hour. After incubation, the plates were centrifuged at 500×g for 10 min, and the supernatants were transferred to new clean wells. Release of hemoglobin was measured as the absorbance of the supernatants at a wavelength of 540 nm using microplate reader (Victor PerkinElmer). The relative optical density compared to the suspension treated with 1% Triton X-100 was defined as the percentage of hemolysis. The results present HC10, HC50 defined as the lowest concentration of lipopeptide conjugate that induced 10% and 50% cell lysis, respectively. The novel lipopeptide conjuagtes have a lack of hemolytic activity at the wide range of concentrations in relation to their biological effect. These lipopeptide conjugates induced 10% of cell lysis at concentration range from 0.19 to 1.62 mM (Table 6). […]

BALB/c mice = assay: In vivo full-thickness excision wound healing; parameters: species or system Mus musculus BALB/c mice; conditions: preparation 0.1% w/w daily d0÷d10 or 4.0% w/w at d0, d3, d7, d10; versus control
Procedure: 8-10 week-old female Mus musculus BALB/c mice (purchased from Tri-City Academic Laboratory Animal Centre-Research nad Services Centre) were used in the study. The experiments were carried out in Tri-City Academic Laboratory Animal Centre - Research and Services Centre according to the approved guidelines of Local Ethics Committee of Animal Experimentation in Bydgoszcz (permit No. 31/2018). Mice were housed under standard conditions, with ad libitum access to food pellets and tap water, and kept under control conditions (22±2°C, relative humidity 55±10%, 12/12 light/darck cycle).
In experiments, mice were divided into groups i.e. control groups (n=6) and experimental groups (n=6). The animals were anesthetized with 3÷5% isoflurane. […] The progress of the wound healing process was assessed according to the defined administration schedule at intervals (d0, d3, d7, d10, d14). […] Wound surfaces were each photographed with a Nikon Coolpix S5100 camera and calculated with the use of Image J. Wound healing (restoration of a full-layer skin) is interpreted as the percentage reduction of the original wound area over time. The process of reepithelization was also assessed, indicating the surface of new epithelium extending. […]

BR1N [7] = assay: Cytotoxicity, LDH release assay; format: cell-based, human; conditions: 10% decrease in viability, tested 1÷1000 µg/mL
Procedure: as §1

Row | Structure (SMILES) | concentration that facilitates primary human fibroblast cell migration (primary fibroblast cells; 24 h treatment) | reduction of the wound surface (primary fibroblast cells; aqueous solution, 0.01 µg/mL, compared to the control, primary human fibroblast cells) | Keratinocyte proliferation [n-times of control] ([1]; 0.01 µg/mL) | Keratinocyte proliferation [n-times of control] ([1]; 0.10 µg/mL) | EC10 (HaCaT [2]) | EC10 (primary fibroblast [3]) | EC10 (BR1N [4]) | EC10 (HaCaT [5]) | EC10 (primary fibroblast [6]) | EC50 (primary fibroblast [6]; 50% decrease in viability) | HC10 (human erythrocytes) | HC10 (human erythrocytes; red cells of human, 1 h) | Differences in wound size and coverage of the wound with a new epithelial layer (BALB/c mice) | Percentage wound area reduction observed at (primary fibroblast cells; primary fibroblast cells, tested at 0.01 and 0.10 µg/mL) | HC50 (human erythrocytes) | HC50 (human erythrocytes; red cells of human, 1 h) | EC10 (BR1N [7])
1 | CCCCCCCCCCCC(=O)NCC(=O)N1CCC[C@H]1C(=O)N1C[C@H](O)C[C@H]1C(=O)N[C@@H](CCCCN)C(N)=O [Lipopeptide conjugate 3, N^α-lauroyl-Gly-Pro-Hyp-Lys-NH2] (Lauroyl-GP[Hyp]K-NH2) | < 0.1 µg/mL | 18.29% | 1.29±0.17 n-times of control | 1.34±0.11 n-times of control | 171.4 ± 78.3 µM | 420.6 ± 42.1 µM | >504.7 µM | 210.2 ± 110.4 µM | 399.7 ± 35.8 µM | 685 ± 138 µM | 1.6169 mM | 961.1 µg/mL | visible from Day 3 |  |  |  | 
2 | CCCCCCCCCCCC(=O)NCC(=O)N1CCC[C@H]1C(=O)N[C@@H](CCCCN)C(N)=O [Lipopeptide conjugate 1] (Lauroyl-Gly-Pro-Lys-NH2) |  |  | 1.08±0.04 n-times of control | 1.08±0.04 n-times of control | 537.1 ± 45.3 µM | 890.9±171. 9 µM |  | 254.1 ± 85.5 µM |  |  | 0.2962 mM | 142.5 µg/mL | visible from Day 3 | 10-fold increased concentrations | > 1.0387 mM | > 500 µg/mL | 
3 | CCCCCCCCCCCC(=O)NCC(=O)N1C[C@H](O)C[C@H]1C(=O)N1C[C@H](O)C[C@H]1C(=O)N[C@@H](CCCCN)C(N)=O [Lipopeptide conjugate 2, N^α-lauroyl-Gly-Hyp-Hyp-Lys-NH2] (Lauroyl-G[Hyp][Hyp]K-NH2) |  |  |  |  | 346.9 ± 35.0 µM | 409.6 ± 66.9 µM | 327.6 ± 40.9 µM |  | 431.2 ± 34.7 µM |  | 0.1858 mM | 113.4 µg/mL |  |  |  |  | 432.8 ± 34.5 µM
